In patent publication US7824868B2, “Formation of superfibronectin by BBK32 and uses therefor” (priority 2007, dated 2010):

B1: BBK32(21-354): Recombinant intact BBK32 protein, residues 21-354, including the C-terminal globular domain (SEQ ID NO: 5) (protein)
chain: DLFIRYEMKEESPGLFDKGNSILETSEESIKKPIKKPMNKKGKGKIARKKGKSKVSRKEPYIHSLKRDSANKSNFLQKNVILEEESLKTELLKEQSETRKEKIQKQQDEYKGMTQGSLNSLSGESGELEEPIESNEIDLTIDSDLRPKSSLQGIAGSNSISYTDEIEEEDYDQYYLDEYDEEDEEEIRLSNRYQSYLEGVKYNVDSAIQTITKIYNTYTLFSTKLTQMYSTRLDNFAKAKAKEEAAKFTKEDLEKNFKTLLNYIQVSVKTAANFVYINDTHAKRKLENIEAEIKTLIAKKIEQSNLYEAYKAIVTSILLMRDSLKEVQGIIDKNGVWY
modifications: recombinant peptide from residues 21-354 of BBK32
B2: BBK32(21-205): Recombinant fibronectin-binding segment, residues 21-205, of Borrelia burgdorferi lipoprotein BBK32 (SEQ ID NO: 6) (protein)
chain: DLFIRYEMKEESPGLFDKGNSILETSEESIKKPIKKPMNKKGKGKIARKKGKSKVSRKEPYIHSLKRDSANKSNFLQKNVILEEESLKTELLKEQSETRKEKIQKQQDEYKGMTQGSLNSLSGESGELEEPIESNEIDLTIDSDLRPKSSLQGIAGSNSISYTDEIEEEDYDQYYLDEYDEEDEEEIRL
modifications: recombinant peptide from residues 21-205 of BBK32

What was measured:
[1] = tested on: fibronectin matrix assembly; details: cited from earlier work
plasma fibronectin = experiment: Proteolytic (thermolysin) digestion of fibronectin aggregates; assay type: biochemical, human; details: 20 μM inducer, 1 μM plasma fibronectin, 5 μg/ml thermolysin 2 hours, SDS-PAGE
Description: The sequences obtained, SSPVVID (SEQ ID No. 12), AVEENQE (SEQ ID No. 13), and ITETIP (SEQ ID No. 14), were located to the end of ^13F3, middle of ^3F3, and the start of ^1F3, respectively for both BBK32/fibronectin and Anastellin/fibronectin. Pre-stained protein standard (New England Biolabs).
BBK32, Anastellin, and plasma fibronectin were dialyzed into thermolysin digestion buffer (25 mM Tris, 0.5 mM EDTA, pH 8, 50 mM NaCl, and 2.5 mM CaCl2). 20 μM BBK32 or 20 μM Anastellin was added to 1 μM plasma fibronectin. Solutions were mixed and aggregates were allowed to form for one hour at room temperature. After one hour incubation, 5 μg/ml thermolysin (Sigma) was added to the BBK32-sFn, the Anastellin-sFn, and to plasma fibronectin. The solutions were incubated at room temperature with end-over-end mixing for 2 hours. Digestion was stopped after two hours with the addition of EDTA to a final concentration of 5 mM. Samples were then run on 4-20% gradient SDS-PAGE gels under non-reducing conditions. […] Excess stain was removed with 40% methanol and bands that were present in BBK32-sFn and Anastellin-sFn, but not in plasma fibronectin lanes, were excised and analyzed by N-terminal sequencing using Edman degradation (Protein Sequencing Division, Tufts University Core Facility, Boston, Mass.).

[2] = tested on: purified plasma fibronectin; experiment: Fibronectin aggregation assay (O.D.600); assay type: biochemical, human; details: for induction of plasma fibronectin aggregation (in words): 1 μM purified plasma fibronectin, absorbance at 600 nm
Description: BBK32, FnbpA peptide D3, Anastellin, and purified plasma fibronectin were centrifuged at 14,000 rpm for 15 minutes and then filtered through 0.22 μm PES syringe filters (Nalgene, Rochester, N.Y.). Following filtration, BBK32, FnbpA peptide D3, and Anastellin were titrated into 1 μM purified plasma fibronectin in TBS. After the addition of each aliquot, the fibronectin/protein mixture was carefully mixed five times with a 200 μl pipette and optical density at 600 nm was measured using a BioPhotometer (Eppendorf, New York, N.Y.) after 10 seconds.

[3] = tested on: fibronectin matrix of normal human dermal fibroblasts (NHDFs); experiment: Effects on fibronectin matrix assembled by normal human dermal fibroblasts (immunostaining); assay type: cell-based; details: 5 μM, 20 hours
Description: Cells were treated for 20 hours and then fixed. […] Treated cells were incubated for 20 hours and probed with Alexa Fluor 488-anti-fibronectin, monoclonal antibody IST-1, and monoclonal antibody IST-9. Images were taken using LSM 510 Confocal Microscope. Bar=10 μm.
4×10^4 adult normal human dermal fibroblasts (NHDFs) (Cambrex, East Rutherford, N.J.) were seeded onto glass coverslips in 24 well Costar tissue culture plates in Fibroblast growth media-2 (FGM-2) (Cambrex). Cells were allowed to grow for 48 hours and then BBK32, Anastellin, or FnbpA peptide D3 was added to a final concentration of 5 μM in FGM-2. Treated cells were incubated for 20 hours at 37° C., 5% CO2. After incubation, cells were washed with Dulbecco's PBS (DPBS) (Gibco, Invitrogen, Carlsbad, Calif.) and fixed with 2% paraformaldehyde for 30 minutes at room temperature. Following washing with DPBS, cells were blocked with 1% BSA for one hour at room temperature. Cells were then probed with Alexa Fluor 488-anti-fibronectin, Texas Red anti-His, monoclonal antibodies IST-1 (plasma and cellular fibronectin) and IST-9 (cellular fibronectin) (abcam, Cambridge, UK) or combinations of antibodies at a dilution of 1:3000 for one hour at room temperature. Following extensive washing with DPBS, appropriate fluorescently labeled secondary antibodies (Alexa Fluor 594-goat anti-mouse) (Invitrogen, Carlsbad, Calif.) were added at a dilution of 1:3000 and incubated for one hour at room temperature. After incubation, cells were washed extensively with DPBS and coverslips were mounted using Gel/Mount (biømeda, Foster City, Calif.) onto glass slides and images were taken using a LSM 510 Confocal Microscope (Zeiss).

[4] = tested on: human umbilical vein endothelial cells (HUVECs); experiment: Endothelial cell proliferation assay; assay type: cell-based; details: 72 hours; for effect on proliferation of endothelial cells (in words): cell counts
Description: Cells were seeded onto tissue culture plates in full media and allowed to adhere for two hours. […] Cells were then incubated for 72 hours at 37° C., 5% CO2. After 72 hours, wells were washed, trypsinized, and counted (three counts/well, three wells/dose) using a hemacytometer.
1×10^4 human umbilical vein endothelial cells (HUVECs) (Cambrex) were seeded into Costar 24 well tissue culture plates in endothelial growth media-2 (EGM-2) (Cambrex) and allowed to adhere for two hours. After two hours, BBK32, Anastellin, and FnbpA peptide D3 were added in a dose dependent manner (triplicate) to the wells suspended in EGM-2. Cells were allowed to incubate for 72 hours at 37° C., 5% CO2. After 72 hours, wells were washed with PBS and cells were trypsinized with 0.5% trypsin/EDTA (Cambrex). Trypsinized cells were collected in microcentrifuge tubes and trypsin/EDTA was neutralized with EGM-2. Cells were counted from each well (three counts/well, three wells/dose) using a hemacytometer.

^1F3 fibronectin module = biological target: T1, ^1F3 fibronectin module (Homo sapiens, UniProt P02751); experiment: ELISA-type binding assay, immobilized 1F3 module
T1 construct: His-tag (N); made in house
Description: Binding to ^1F3 (FIG. 1A), ^1-2F3 (FIG. 1B), and ^3F3 (FIG. 1C) was assessed using ELISA-type assays. F3 modules were immobilized in microtiter wells and blocked with Ovalbumin.
Binding of BBK32 to F3 modules was tested by coating 1 μg of recombinant ^1F3, ^1-2F3, and ^3F3 modules in 50 μl of 50 mM Tris-HCl, 150 mM NaCl, pH 7.5 (TBS) per well in Immulon 4HBX microtiter plates (Dynatech Laboratories, Chantilly, Va.) and incubating overnight at 4° C. The next day, the wells were washed with 200 μl TBS, 0.05% Tween 20, pH 7.4 (TBST) and blocked with 200 μl TBST containing 2% ovalbumin (Sigma, St. Louis, Mo.) for one hour at room temperature. […] Plates were incubated for one hour at room temperature. After washing with TBST, primary antibodies (rabbit IgG anti-BBK32 or rabbit IgG anti-FnbpA) were added to each well at a 0.48 μg/ml. Plates were incubated for one hour at room temperature and then were washed again with TBST.
Following washing, a 1:3000 dilution of HRP-conjugated goat-anti-rabbit antibodies (BioRad, Hercules, Calif.) was added to each well. Plates were incubated for one hour at room temperature and then washed with TBST. […] Absorbance was measured at 450 nm using a Thermo Max microplate reader (Molecular Devices, Sunnyvale, Calif.). Apparent Kds were calculated by assessing maximal half-binding (Y=Bmax·X/(Kd+X)).

[5] = tested on: leukocyte (mononuclear cell) migration across endothelial cell layer; experiment: Transendothelial migration assay (Transwell); assay type: cell-based; details: IL-4 treated endothelial layer, IL-8 chemoattractant, four hours
Description: To determine if sFn decrease the migration of leukocytes to the infection site, transendothelial migration assays were assessed. In these assays endothelial cells were grown to confluence in Transwell® inserts and were encouraged to form tight junctions using interleukin 4 (IL-4). SFn formation was then induced to form on the surface of the endothelial cell layer using BBK32 (21-354), (21-205) and (153-175). A chemoattractant (IL-8) was added to the bottom chamber of the Transwell setup. Mononuclear cells were added to the upper chamber and permitted to migrate for four hours. Following incubation, cells in the bottom chamber were counted.

[6] = Stability of recombinant protein; assay type: physicochemical
[7] = tested on: fibronectin 56 kDa and 45 kDa gelatin binding fragments; experiment: Far Western blot of thermolysin digest of fibronectin; details: 56 kDa fragment vs 45 kDa gelatin binding fragment
Source text: BBK32 binds to the ^1F1-^5F1 N-terminal segment of fibronectin by the tandem beta-zipper mechanism (6-7).

endothelial cells = experiment: Annexin V apoptosis assay on endothelial cells; assay type: cell-based; details: not shown

Sequence of purified plasma fibronectin (P02751 32-1265 limits assumed): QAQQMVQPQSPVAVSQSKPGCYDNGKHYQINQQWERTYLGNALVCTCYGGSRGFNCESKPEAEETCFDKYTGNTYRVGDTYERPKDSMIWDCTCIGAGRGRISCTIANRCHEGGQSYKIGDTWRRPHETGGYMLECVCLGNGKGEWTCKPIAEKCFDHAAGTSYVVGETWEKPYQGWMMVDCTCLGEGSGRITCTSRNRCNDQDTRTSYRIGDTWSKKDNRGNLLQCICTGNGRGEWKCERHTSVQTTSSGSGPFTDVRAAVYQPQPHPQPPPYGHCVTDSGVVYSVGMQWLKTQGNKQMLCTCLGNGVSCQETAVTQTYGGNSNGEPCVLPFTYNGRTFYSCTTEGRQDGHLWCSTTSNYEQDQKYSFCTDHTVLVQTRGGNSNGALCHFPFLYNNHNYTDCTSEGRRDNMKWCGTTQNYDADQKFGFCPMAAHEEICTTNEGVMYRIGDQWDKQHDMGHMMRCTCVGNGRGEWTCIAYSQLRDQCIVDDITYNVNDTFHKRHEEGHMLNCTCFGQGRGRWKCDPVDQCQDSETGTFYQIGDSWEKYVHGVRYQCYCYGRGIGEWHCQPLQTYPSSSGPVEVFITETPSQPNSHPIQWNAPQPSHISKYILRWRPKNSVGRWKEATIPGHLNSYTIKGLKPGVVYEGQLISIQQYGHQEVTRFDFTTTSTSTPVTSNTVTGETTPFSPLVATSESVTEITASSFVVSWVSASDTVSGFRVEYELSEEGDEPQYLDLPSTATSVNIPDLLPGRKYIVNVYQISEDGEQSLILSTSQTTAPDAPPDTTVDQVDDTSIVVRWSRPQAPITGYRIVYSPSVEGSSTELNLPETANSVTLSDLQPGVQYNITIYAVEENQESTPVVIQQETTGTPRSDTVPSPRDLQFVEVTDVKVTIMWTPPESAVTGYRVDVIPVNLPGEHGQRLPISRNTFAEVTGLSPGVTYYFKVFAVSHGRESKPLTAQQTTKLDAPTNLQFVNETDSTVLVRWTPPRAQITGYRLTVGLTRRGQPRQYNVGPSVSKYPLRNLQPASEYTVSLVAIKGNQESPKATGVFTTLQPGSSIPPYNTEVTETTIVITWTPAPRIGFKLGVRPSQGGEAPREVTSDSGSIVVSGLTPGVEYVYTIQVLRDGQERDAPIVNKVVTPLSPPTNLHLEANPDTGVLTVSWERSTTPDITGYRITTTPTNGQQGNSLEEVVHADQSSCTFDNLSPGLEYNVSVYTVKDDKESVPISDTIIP
Sequence of plasma fibronectin (P02751 32-1265 limits assumed): as above
T1 sequence (P02751 608-700): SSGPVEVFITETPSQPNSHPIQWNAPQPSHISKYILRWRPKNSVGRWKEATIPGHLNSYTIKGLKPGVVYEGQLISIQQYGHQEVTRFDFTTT

| Molecule | concentration at which matrix assembly is blocked ([1]; high concentrations, 16 hour incubation causes disappearance of pre-existing matrix) | concentration at which fibronectin matrix assembly is promoted ([1]; low concentrations) | thermolysin fragment profile of induced fibronectin aggregates (plasma fibronectin) | induction of plasma fibronectin aggregation (in words) [2] | co-localization with fibronectin in the extracellular matrix [3] | immunostaining with monoclonal antibody IST 9 (EDA epitope of cellular fibronectin) [3] | effect on proliferation of endothelial cells (in words) [4] | binding to the ^1F3 module (in words) (^1F3 fibronectin module) | inhibition of transendothelial migration by induced sFn [5] | stability of the recombinant protein [6] | fibronectin aggregation on addition of detergent Triton X-100 ([2]; Triton X-100 added, not shown) | relative binding to fibronectin thermolysin fragments [7] | Annexin V assays (apoptosis) (endothelial cells) | potency at inhibiting endothelial cell proliferation relative to Anastellin [4] |
| --- | --- | --- | --- | --- | --- | --- | --- | --- | --- | --- | --- | --- | --- | --- |
| Anastellin: Recombinant form of the C-terminal two-thirds of fibronectin ^1F3 with C-terminal His-tag; known inducer of superfibronectin | above 20 μM | less than 5 μM | very similar fragment profiles | induced fibronectin aggregation | co-localize with fibronectin | markedly reduced immunostaining with IST 9 | concentration dependent manner | – | – | – | – | – | – | – |
| FnbpA peptide D3: S. aureus fibronectin-binding peptide D3 of MSCRAMM FnbpA, synthesized and purified by HPLC; used as control (GFNKHTEIIEEDTNKDKPSYQFGGHNSVDFEEDTLPK) | – | – | – | not the D3 protein induced fibronectin aggregation | co-localize with fibronectin | no different from the staining observed for the no treatment control | only marginally affected the proliferation of cells | did not to bind the ^1F3 module | – | – | – | – | – | – |
| IDLTIDSDLRPKSSLQGIAGSNS (recombinant peptide from residues 153-175 of BBK32) [BBK32(153-175), BBK32 peptide, residues 153-175, containing the motifs similar to anastellin] | – | – | – | induce aggregation of plasma fibronectin in a concentration dependent manner | – | indicates conformational changes in fibronectin in matrices produced by fibroblasts | inhibits human umbilical vein endothelial cell proliferation in a concentration dependent manner | – | as effective at inhibiting transendothelial migration as the full length BBK32 protein | – | – | – | – | – |
| B1 | – | – | – | induced aggregation of fibronectin at lower concentrations than BBK32(21-205) | – | – | – | – | – | unstable and susceptible to degradation | – | – | – | – |
| B2 | – | – | very similar fragment profiles | induced fibronectin aggregation | co-localize with fibronectin | reduction of immunostaining with IST 9 | inhibited the proliferation of endothelial cells in a concentration dependent manner | – | – | – | inhibited fibronectin aggregation | binds more strongly to the 56 kDa fragment than to the 45 kDa gelatin binding fragment | negative | reproducibly more potent at inhibiting endothelial cell proliferation than Anastellin |
